# Assay results as given in ChEMBL document CHEMBL4834422, “New Tyramine- and Aporphine-Type Alkamides with NO Release Inhibitory Activities from Piper puberulum” (J Nat Prod, 2021).
# How the values were obtained:
# BV-2 [1] = assay: Antineuroinflammatory activity against mouse BV2 cells assessed as inhibition of LPS-induced NO production incubated for 20 hrs by Griess assay; type: functional, cell-based; settings: BV-2, 20 h
# BV-2 [2] = assay: Cytotoxicity against mouse BV2 cells assessed as reduction in cell viability at 1 to 25 uM after 24 hrs by MTT assay; type: cell-based; settings: bv-2, 24 h, dose 1-25 µM
Compound,IC50 (BV-2 [1]),Activity (BV-2 [2])
COc1cc2c3c(cc4ccccc4c3c1OC)NC(=O)C2=O [NORCEPHARADIONE],37 µM,Non-Toxic
COc1c(O)c(OC)c2c3c1CCN(C(C)=O)[C@@H]3[C@@H](O)c1ccccc1-2,> 50 µM,
COc1cc2c3c(cc4ccccc4c3c1O)NC2=O [PIPEROLACTAM A],> 50 µM,
O=C(NCCc1ccc(O)cc1)c1ccc(O)c(O)c1,21 µM,Non-Toxic
COc1c2c3c(c(OC)c1OC)-c1ccccc1[C@H](O)[C@H]3N(C(C)=O)CC2,> 50 µM,
COc1ccc(CCNC(=O)c2cc(OC)ccc2O)cc1,> 50 µM,
COc1c(OC)c(OC)c2c3c(cc4ccccc42)NC(=O)c13,12 µM,Non-Toxic
CCCCC/C=C/C=C/C(=O)NCC(C)C [PELLITORIN],45 µM,Non-Toxic
COc1cc2c3c(c1OC)-c1ccccc1[C@H](O)[C@H]3N(C(C)=O)CC2,> 50 µM,
COc1ccc(OC)c(C(=O)NCCc2ccc(O)c(OC)c2)c1,> 50 µM,
NC(=O)c1cn(CCc2ccc(O)cc2)c(=O)c2c(O)ccc(O)c12,> 50 µM,
COc1cc2c3c(cc4ccccc4c3c1OC)NC2=O [CEPHARANONE B],> 50 µM,
COc1cccc(/C=C/C(=O)N2CCCC2)c1,> 50 µM,
COc1cc(/C=C\C(=O)NCCc2ccc(O)cc2)ccc1O,22 µM,Non-Toxic
COc1ccc(O)c(C(=O)NCCc2ccc(O)c(OC)c2)c1,26 µM,Non-Toxic
COc1c(O)cc2c3c1-c1ccccc1[C@H](O)[C@H]3N(C(C)=O)CC2,> 50 µM,
O=C1c2ccccc2-c2c3c(cc4ccnc1c24)OCO3 [LIRIODENINE],5 µM,Non-Toxic
COc1ccc(CCNC(=O)c2c(O)ccc(O)c2OC)cc1,1.4 µM,Non-Toxic

# Second part, led by results:
IC50 (BV-2 [1]),Compound,Activity (BV-2 [2])
> 50 µM,COc1cc(/C=C/C(=O)NCCc2ccc(O)cc2)cc(OC)c1O [TRANS-N-SINAPOYLTYRAMINE],
> 50 µM,COc1cc([C@H]2c3c(cc(OC)c(O)c3OC)C=C(C(=O)NCCc3ccc(O)cc3)[C@@H]2C(=O)NCCc2ccc(O)cc2)cc(OC)c1O,
2.2 µM,O=C(/C=C/c1ccc(O)cc1)NCCc1ccc(O)cc1 [N-P-COUMAROYL TYRAMINE],Non-Toxic
> 50 µM,COc1cc(/C=C\C(=O)NCCc2ccc(O)cc2)cc(OC)c1O,
7 µM,COc1ccc(CCNC(=O)c2cc(O)ccc2O)cc1,Non-Toxic
> 50 µM,COc1cc(/C=C/C(=O)NCCc2ccc(O)c(OC)c2)ccc1O,
15 µM,CN(C)c1ccc(O)c2c1C[C@H]1C[C@H]3[C@H](N(C)C)C(O)=C(C(N)=O)C(=O)[C@@]3(O)C(O)=C1C2=O [MINOCYCLINE],
9 µM,CC(=O)N1CCc2cc3c(c4c2[C@H]1[C@@H](O)c1ccccc1-4)OCO3,Non-Toxic
18 µM,COc1cc(/C=C/C(=O)NCCc2ccc(O)cc2)ccc1O [N-TRANS-FERULOYL TYRAMINE],Non-Toxic
16 µM,COc1c2c3c(c4c1OCO4)-c1ccccc1[C@H](O)[C@H]3N(C(C)=O)CC2,Non-Toxic
> 50 µM,COc1ccc(O)c(C(=O)NCCc2ccc(O)cc2)c1,
6.8 µM,O=CN1CCc2cc3c(c4c2[C@H]1[C@@H](O)c1ccccc1-4)OCO3,Non-Toxic
